From US8663645B2, “Use of native peptides and their optimized derivatives for vaccination” (Vaxon Biotech, priority 2005, dated 2014)
Values joined by “and” are separate entries in the source; they are usually repeats but may differ in a detail not shown here. Equal values may be shown once. No end group written: not given here.

How the values were obtained:
EL4/HHD tumor cells = test: In vivo tumor protection assay; parameters: species or system HHD mice; settings: for Survival post-challenge / Survival post-challenge (days): individual mice
Procedure: HHD mice were vaccinated with 100 μg of peptide emulsified in IFA in the presence of 150 μg of the 1 Ab restricted HBVcore128 epitope once and then again two weeks later. One week after the second vaccination they were challenged subcutaneously with 2×10^4 EL4/HHD cells. Survival was recorded every two days.
HHD mice were vaccinated with the optimized cryptic TERT572Y and TERT988Y peptides and fifteen days later boosted with either the same optimized or the corresponding native cryptic peptide. Ten days after the boost, mice were challenged with EL4/HHD tumor cells and monitored for tumor growth and survival. Mice primed and boosted with the gp100154 peptide were used as negative controls (Table 8). 100% of control mice died by day 43 post-challenge.

[1] = tested on: RMAS/HHD cells pulsed with TERT988; test: Avidity of CTL lines for native TERT988 (51Cr release); type: cell-based, HHD mice; settings: TERT988Y primed spleen cells
Procedure: (§1) HHD mice were injected subcutaneously with 100 μg of nonamer peptides emulsified in incomplete Freund's adjuvant (IFA) in the presence of 150 μg of the I-Ab restricted HBVcore128 T-helper epitope. Spleen cells (5×10^7 cells in 10 ml) from immunized HHD mice were stimulated in vitro with peptide (10 μM) in RPMI1640+10% FCS for five days. The CTL lines were established by weekly re-stimulation in vitro with irradiated spleen cells in the presence of peptide and 50 U/ml IL-2 (Proleukin, Chiron Corp., Emeryville, Calif.).
(§2) Murine RMAS/HHD cells were used as targets for cytotoxicity as described (Tourdot, Scardino et al. 2000). Briefly, 2.5×10^3 51Cr-labeled targets were pulsed with increasing doses (0.00001-10 μM) of peptides at 37° C. for 60 min. Effector cells in 100 μl were then added and incubated at 37° C. for 4 hours. After incubation, 100 μl of supernatant were collected and radioactivity was measured in a gamma counter. The specific lysis was determined as: Lysis=(Experimental Release−Spontaneous Release)/(Maximal Release−Spontaneous Release). CTL avidity is defined as the peptide concentration that gives half the maximal lysis. […] In Vivo Tumor Protection Assay
(§3) HHD mice were immunized with the optimized cryptic TERT988Y peptide. Eleven days later, spleen cells from vaccinated mice were pooled and in vitro serially stimulated with 10 μM of either TERT988Y or the native cryptic TERT988 peptides in the presence of 50 IU/ml of IL2. Stimulations were repeated every week. After the first, third and sixth in vitro stimulation, CTL lines were tested for their avidity for the native TERT988 peptide in a classical ^51Cr release cytotoxicity assay (Table 5).

[2] = Storage stability of vaccine peptides; type: physicochemical; settings: more than two years of storage at −80° C.
Procedure: The vaccine consisted of optimized TERT572Y (YLFFYRKSV) (SEQ ID NO:2) and native TERT572 (RLFFYRKSV) (SEQ ID NO:1) peptides emulsified in Montanide ISA51 (Seppic Inc, France). The vaccine peptides were synthesized at the Faculty of Pharmacy, University of Patras (Greece) by means of solid-phase Fmoc/Bu chemistry. Quality assurance studies included confirmation of identity, sterility and purity (>95% for both peptides). […] Each peptide was prepared as a lyophilized powder for reconstitution and dilution in sterile water.

[3] = tested on: RMAS/HHD cells pulsed with TERT572; test: Avidity for TERT572 of CTL after in vivo prime and boost; settings: individual HHD mice, 1st vaccination TERT572Y, 2nd vaccination the labelled peptide
Procedure: as §1, §2
HHD mice were vaccinated with the optimized cryptic TERT572Y peptide described above. Fifteen days later, they were boosted with either the same optimized or the native cryptic TERT572 peptide. […]

[4] = tested on: patients treated with TERT540; settings: cited from earlier work
[5] = tested on: RMAS/HHD cells pulsed with MAGE-A248D9; test: Avidity of CTL lines for native MAGE-A248D9 (51Cr release); type: cell-based, HHD mice; settings: MAGE-A248V9 primed spleen cells
Procedure: as §1, §2
as §3, with “optimized MAGE-A248V9 peptide, corresponding to the” for “optimized”, “MAGE-A248D9 (both described in WO03083124).” for “TERT988Y peptide.”, “100” for “10”, “MAGE-A248V9” for “TERT988Y”, “MAGE-A248D9” for “TERT988”, “6).” for “5).”

[6] = Phase I clinical study: toxicity (NCI Common Toxicity Criteria); type: in vivo, human
Procedure: Patients received a total of six subcutaneous vaccinations administered every 3 weeks. Peptides in 0.5 ml aqueous solution were emulsified with 0.5 ml Montanide ISA51 immediately before being injected. The optimized TERT572Y peptide was used for the first 2 vaccinations and the native TERT572 peptide for the remaining 4 vaccinations. Five dose levels of the peptides were studied; dose levels included 2, 3, 4, 5 and 6 mg of both peptides. Three patients were entered at each dose level. An additional 3 patients were planned to be enrolled at the dose level where a dose-limiting event was observed. Each patient received the same peptide dose for all six vaccinations. No other treatment with possible antitumor activity, i.e., chemotherapy, radiotherapy, hormonal therapy or administration of corticosteroids, was allowed during the course of vaccination.
Before entering the study, all patients were assessed by complete medical history, physical examination, and complete blood cell count with differential, serum chemistry and baseline measurements of relevant tumor markers. Moreover, measurable disease was determined by standard imaging procedures (chest x-ray, ultrasound, computed tomography scans of thorax and abdomen, magnetic resonance imaging (MRI) if indicated, and whole body bone scans). Toxicity during the vaccination protocol was evaluated by repeating the complete blood cell count weekly and by performing medical history, physical examination and serum chemistry every three weeks before each subsequent injection during the vaccination period and every month thereafter during the follow up. Toxicity was assessed and scored using the National Cancer Institute (NCI) Common Toxicity Criteria (Ajani, Welch et al. 1990). Dose-limiting toxicity (DLT) was assessed during the entire vaccination protocol and was defined as the occurrence of any of the following: grade 4 hematologic toxicity; grade 3-4 neutropenia with fever>38.2° C.; grade 3-4 non-hematologic toxicity; and any treatment delay because of toxicity. Dose escalation was discontinued and the DLT dose level was reached if at least 50% of the patients treated at that level develop a DLT. The MTD dose level was defined as the first level below the DLT dose level.

[7] = prime TERT988Y, boost the labelled peptide
[8] = 1 in vitro stimulation with the labelled peptide (10 μM)
[9] = 3 in vitro stimulations with the labelled peptide
[10] = 6 in vitro stimulations with the labelled peptide
[11] = prime TERT572Y, boost the labelled peptide
[12] = 1 in vitro stimulation with the labelled peptide

Substance: DLQVNSLQTV (TERT-988) [TERT988]
- Survival post-challenge (EL4/HHD tumor cells; [7]): 39 days and 40 days and 41 days
- Survival post-challenge (days) (EL4/HHD tumor cells; [7]): 200+ days
- CTL line avidity [1, 8]: 170 nM
- CTL line avidity [1, 9]: 70 nM
- CTL line avidity [1, 10]: 3 nM

Substance: KTWGQYWQV [Gp100154, reference compound]
- Survival post-challenge (EL4/HHD tumor cells; prime Gp100154, boost the labelled peptide (negative control)): 39 days (2×) and 43 days and 41 days (2×) and 40 days
- control mice died by day 43 post-challenge (EL4/HHD tumor cells; primed and boosted with gp100154): 100%

Substance: RLFFYRKSV (TERT-572) [TERT572, native cryptic peptide derived from TERT]
- purity or concentration after storage [2]: No decrease in purity or concentration
- Survival post-challenge (EL4/HHD tumor cells; [11]): 32 days and 35 days and 40 days
- Survival post-challenge (days) (EL4/HHD tumor cells; [11]): 200+ days
- CTL avidity [3]: 110 nM and 190 nM and 70 nM

Substance: TERT540: dominant peptide TERT540 (hTERT:540-548), literature vaccine (ILAKFLHWL; UniProt O14746 540-548, looked up, fragment)
- objective clinical response ([4]; 11 patients with renal cancer (Parkhurst, Riley et al. 2004)): none of 11 patients
- patients who responded to the vaccine ([4]; TERT540 emulsified in Monatanide (Parkhurst, Riley et al. 2004)): 50%

Substance: YLEYRQVPD (MAGE-A-248D9) [MAGE-A248D9]
- CTL avidity [5, 12]: 200 nM
- CTL avidity [5, 9]: 40 nM
- CTL avidity [5, 10]: 0.8 nM

Substance: YLEYRQVPV (MAGE-A-248V9) [MAGE-A248V9]
- CTL avidity [5, 12]: 400 nM
- CTL avidity [5, 9]: 450 nM
- CTL avidity [5, 10]: 320 nM

Substance: YLFFYRKSV [TERT572Y, YLFFYRKSV]
- hematologic, renal, gastrointestinal or hepatic toxicity ([6]; TERT-expressing normal cells and tissues): no significant hematologic, renal, gastrointestinal or hepatic toxicity was observed
- MTD dose level ([6]; dose levels 2-6 mg): has not been reached
- Dose-limiting toxicity (DLT) ([6]; dose levels 2-6 mg, entire study): No DLT was observed
- signs of autoimmunity ([6]; even 24 months after the end of vaccination): none of the patients showed signs of autoimmunity
- Toxicity Grade I ([6]; individual patients): no (6×) and Anemia, local skin, fatigue, and anorexia and Thrombo/penia, local skin and Local skin (5×) and thrombocytopenia and Anemia, local skin (3×) and Anemia and Local skin, anemia
- Toxicity Grade II ([6]; individual patients): fatigue, nausea and no (16×) and anorexia, fatigue, and nausea and anorexia, fatigue
- Toxicity Grade III/IV ([6]; individual patients): no
- delayed toxicity ([6]; monthly follow up after completing or discontinuing vaccination): no signs or findings of delayed toxicity were observed
- grade 11 anorexia ([6]; of 19 patients): 2 patients
- grade 11 fatigue ([6]; of 19 patients): 3 patients
- grade 11 nausea ([6]; of 19 patients): 2 patients
- grade I anemia ([6]; of 19 patients): 6 patients
- grade I anorexia ([6]; of 19 patients): 1 patient
- grade I fatigue ([6]; of 19 patients): 1 patient
- grade I local skin reaction ([6]; of 19 patients): 11 patients
- grade I thrombocytopenia ([6]; of 19 patients): 2 patients
- patients who developed grade 11 toxicity ([6]; of 19 patients): Three
- patients who developed grade I toxicity ([6]; of 19 patients): Thirteen

Substance: YLQVNSLQTV (TERT-988Y1) [TERT988Y]
- Survival post-challenge (EL4/HHD tumor cells; [7]): 40 days (3×) and 43 days (2×)
- Survival post-challenge (days) (EL4/HHD tumor cells; [7]): 200+ days
- CTL line avidity [1, 8]: 300 nM
- CTL line avidity [1, 9]: 500 nM
- CTL line avidity [1, 10]: 600 nM
